Active and inactive are the calls of the source. The calls are words filed in the database; no cut-off is given here.
What was measured:
Leishmania donovani [1] = assay: Reversal of Top1cc-induced DNA breakdown in Leishmania donovani Ag83 promastigotes by measuring TUNEL positive cells treated for 6 to 12 hrs followed by compound removal measured after 6 to 12 hrs by confocal microscopic analysis relative to camptothecin; format: functional, organism-based; conditions: time 6-12 hrs
Leishmania donovani [2] = assay: Induction of cell cycle arrest in Leishmania donovani Ag83 promastigotes assessed as decrease in accumulation of cells in S phase at 5 uM measured after 6 hrs by PI staining based flow cytometry (reference value: 18.1%); format: functional; design: scale not given: the % may be the effect or the level left
[3] = molecular target: T1, DNA topoisomerase I (Leishmania donovani (strain BPK282A1)) (UniProt E9BRC0); assay: Inhibition of recombinant Top1 in Leishmania donovani Ag83 whole cell extract preincubated with compound for 5 mins followed by plasmid DNA addition at 5 to 20 uM measured after 30 mins; conditions: dose 5-20 µM
T1 sequence (whole entry): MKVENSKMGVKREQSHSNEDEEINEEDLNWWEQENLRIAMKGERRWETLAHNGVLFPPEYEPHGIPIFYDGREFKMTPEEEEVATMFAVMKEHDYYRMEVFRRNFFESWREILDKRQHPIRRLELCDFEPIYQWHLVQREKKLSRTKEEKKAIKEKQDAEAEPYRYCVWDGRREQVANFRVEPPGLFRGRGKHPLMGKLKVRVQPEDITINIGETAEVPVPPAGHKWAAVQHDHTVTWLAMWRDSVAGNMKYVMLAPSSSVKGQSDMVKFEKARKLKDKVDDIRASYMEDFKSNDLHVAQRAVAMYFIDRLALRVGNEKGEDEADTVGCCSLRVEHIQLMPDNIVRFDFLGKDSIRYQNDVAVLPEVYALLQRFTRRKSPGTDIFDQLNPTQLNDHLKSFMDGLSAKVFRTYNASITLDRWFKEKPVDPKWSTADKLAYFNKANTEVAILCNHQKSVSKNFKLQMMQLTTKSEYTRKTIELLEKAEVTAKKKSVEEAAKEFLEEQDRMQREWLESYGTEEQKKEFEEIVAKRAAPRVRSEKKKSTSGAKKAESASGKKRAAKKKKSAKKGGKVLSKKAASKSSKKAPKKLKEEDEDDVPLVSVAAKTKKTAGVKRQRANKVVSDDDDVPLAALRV

[4] = molecular target: T1, DNA topoisomerase I (Leishmania donovani (strain BPK282A1)); assay: Binding affinity to Leishmania donovani recombinant topoisomerase I assessed as stabilization of cleavage complex at 2.5 to 25 uM measured after 30 mins; conditions: dose 2.5-25 µM
Leishmania donovani [5] = assay: Antileishmanial activity against antimony resistant Leishmania donovani BHU575 amastigotes infected in BALB/c mouse macrophage assessed as cell viability measured after 48 hrs infection by propidium iodide staining analysis relative to control; format: functional, organism-based; conditions: BHU575, 48 h
[6] = Cytotoxicity against BALB/c mouse macrophage assessed as cell viability measured after 48 hrs infection by propidium iodide staining analysis relative to control; format: toxicity, cell-based; conditions: mouse macrophages
Leishmania donovani [7] = assay: Induction of apoptosis in Leishmania donovani Ag83 promastigotes assessed as DNA break accumulation measured at 5 uM after 15 mins by TUNEL staining based assay; format: functional, organism-based
Leishmania donovani [8] = assay: Induction of cell cycle arrest in Leishmania donovani Ag83 promastigotes assessed as decrease in accumulation of cells in S phase at 5 uM measured after 12 hrs by PI staining based flow cytometry (reference value: 18.1%); format: functional; design: scale not given: the % may be the effect or the level left
Leishmania donovani [9] = assay: Induction of apoptosis in Leishmania donovani Ag83 promastigotes assessed as necrotic cells measured at 5 uM after 6 hrs by Annexin V-FITC/PI staining based flow cytometric analysis (reference value: 0.5%); format: functional
Leishmania donovani [10] = assay: (§1) Antileishmanial activity against Leishmania donovani Ag83 promastigotes infected in BALB/c mouse model of visceral leishmaniasis assessed as fold change in T-helper type 1 immunological evoke response in splenocytes by measuring increased IFN-gamma cytokine level treated after 3 weeks of infection at 5 mg/kg, ip twice a week for 3 weeks by RT-PCR analysis; format: functional
Leishmania donovani [11] = assay: Antileishmanial activity against Leishmania donovani Ag83 promastigotes infected in BALB/c mouse assessed as reduction of amastigote burden by measuring parasite count in liver treated after 3 weeks of infection at 5 to 10 mg/kg, ip twice a week for 3 weeks by qPCR based kineto-plastid DNA; format: functional, organism-based; conditions: dose 5-10 mg/kg
Leishmania donovani [12] = assay: Induction of apoptosis in Leishmania donovani Ag83 promastigotes assessed as increase in apoptotic genomic DNA fragmentation measured at 5 uM after 6 hrs by Annexin V-FITC/PI staining based flow cytometric analysis; format: functional, organism-based
Leishmania donovani [13] = assay: Antileishmanial activity against Leishmania donovani Ag83 promastigotes assessed as cell viability by MTT assay; format: functional, organism-based
[14] = molecular target: T1, DNA topoisomerase I (Leishmania donovani (strain BPK282A1)); assay: Inhibition of Leishmania donovani recombinant Top1 assessed as relaxation of supercoiled pBluescript SK(+) DNA at 5 uM incubated for 30 mins by agarose gel electrophoresis analysis relative to control
Leishmania donovani [15] = assay: as §1, with “as” for “as fold change in”, “2” for “1”, “decrease in IL-4” for “increased IFN-gamma cytokine”, “5 to 10” for “5”; format: functional, organism-based; conditions: dose 5-10 mg/kg
MCF7 = assay: Potency index ratio of test compound IC50 to camptothecin IC50 for cytotoxicity against human MCF7 cells; format: functional
Leishmania donovani [16] = assay: Antileishmanial activity against antimony resistant Leishmania donovani BHU575 promastigotes infected in BALB/c mouse assessed as reduction of amastigote burden in spleen treated after 3 weeks of infection at 5 to 10 mg/kg, ip twice a week for 3 weeks by Giemsa staining stamp-smear based limiting dilution assay; format: functional, organism-based; conditions: dose 5-10 mg/kg
Leishmania donovani [17] = assay: as §1, with “increase in TNF alpha” for “increased IFN-gamma”, “5 to 10” for “5”; format: functional; conditions: dose 5-10 mg/kg
Leishmania donovani [18] = assay: Induction of apoptosis in antimony resistant Leishmania donovani BHU575 promastigotes at 5 uM measured after 6 to 24 hrs by FITC-Annexin V-based flow cytometric analysis; format: functional, organism-based; conditions: time 6-24 hrs
Leishmania donovani [19] = assay: Induction of cell cycle arrest in antimony resistant Leishmania donovani BHU575 promastigotes assessed as decrease in accumulation of cells in G0/G1 phase at 5 uM measured after 24 hrs by PI staining based flow cytometry (reference value: 80.7%); format: functional; design: scale not given: the % may be the effect or the level left
Leishmania donovani [20] = assay: Antileishmanial activity in Leishmania donovani Ag83 promastigotes assessed as fold change in persistent Top1cc-induced DNA breakdown by measuring TUNEL positive cells treated for 6 to 12 hrs followed by compound removal measured after 6 to 12 hrs by confocal microscopic analysis relative to camptothecin; format: functional; conditions: time 6-12 hrs
[21] = molecular target: T1, DNA topoisomerase I (Leishmania donovani (strain BPK282A1)); assay: Binding affinity to Leishmania donovani topoisomerase I assessed as DNA intercalation by measuring dislodging of bound fluorophore at 200 uM by EtBr displacement assay
Leishmania donovani [22] = assay: as §1, with “10” for “5”; format: functional
Leishmania donovani [23] = assay: Induction of apoptosis in Leishmania donovani Ag83 promastigotes assessed as DNA break accumulation measured at 5 uM after 24 hrs by TUNEL staining based assay; format: functional, organism-based
Leishmania donovani [24] = assay: Antileishmanial activity against antimony resistant Leishmania donovani BHU575 promastigotes infected in BALB/c mouse assessed as reduction of macrophage at 1 to 10 uM infection by propidium iodide staining analysis; format: functional, organism-based; conditions: dose 1-10 µM, time 72-96 hrs, TDE = time-dependent effect
DNA topoisomerase I = molecular target: T2, DNA topoisomerase I (Leishmania donovani (strain BPK282A1), UniProt E9BRC0); assay: Inhibition of recombinant Top1 in Leishmania donovani Ag83 whole cell extract assessed as relaxation of supercoiled pBluescript SK(+) DNA measured by agarose gel electrophoresis analysis
T2 sequence (E9BRC0 whole entry): T1 sequence (whole entry)

For `COc1cc(-c2nc3ccccc3c3nc4ccccn4c23)cc(OC)c1OC`, the Activity (Leishmania donovani [1]) was “inactive”, the Activity (Leishmania donovani [2]) was 13.6% and the inhibition [3] was “inactive”. The Activity [4] was “Active”, the EC50 (Leishmania donovani [5]) was 7.06 µM and the EC50 at 48 h [6] was 50.2 µM. The Activity (Leishmania donovani [7]) was “Active”, the Activity (Leishmania donovani [8]) was 43.1% and the Activity (Leishmania donovani [9]) was 23.9%. For the same molecule, the “fold change (FC)” value (Leishmania donovani [10]) was 4, the Activity (Leishmania donovani [11]) was “Active” and the Activity (Leishmania donovani [12]) was “Active”. The EC50 (Leishmania donovani [13]) was 2.31 µM, the inhibition [14] was 85% and the Activity (Leishmania donovani [15]) was “Active”. The “Ratio IC50” value (MCF7) was 90, the Activity (Leishmania donovani [16]) was “Active” and the “fold change (FC)” value (Leishmania donovani [17]) was 5. The Activity (Leishmania donovani [18]) was “Active”, the Activity (Leishmania donovani [19]) was 38% and the “fold change (FC)” value (Leishmania donovani [20]) was 3. The Activity [21] was “inactive”, the “fold change (FC)” value (Leishmania donovani [22]) was 5.5 and the Activity (Leishmania donovani [23]) was “Active”. The Activity (Leishmania donovani [24]) was “Tde” and the IC50 (DNA topoisomerase I) was 6.5 µM.

— ChEMBL document CHEMBL5316350, “Novel Pyrido[2',1':2,3]imidazo[4,5-c]quinoline Derivative Selectively Poisons Leishmania donovani Bisubunit Topoisomerase 1 to Inhibit the Antimony-Resistant Leishmania Infection in Vivo” (J Med Chem, 2023)
